Eleven compounds from ChEMBL document CHEMBL1201862, “PubChem BioAssay data set” (2004) can be followed below.

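Interpolation was linear, between the two tested concentrations surrounding the appropriate level; five concentrations were tested over 48 hours in 96-well plates. GI50: concentration for 50% inhibition of growth.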 Calls of active or inactive are those of the source. Cut-off read from the data, not from the text of the source: active = GI50 up to about 1.1 µM and inactive = higher. Where a SMILES comes first, the peptide text is derived from it. [ ]: non-standard residue; d: D form. The star is where a group is joined. Phe(4-NO2) = N[CH](Cc1ccc([N+](=O)[O-])cc1)C(=O)O; Cbz = O=C(OCc1ccccc1)*

Among the test systems are CAKI-1; HCT-15; HL-60; NCI-H23; COLO 205; SK-MEL-28; A549; HOP-92; BT-549; DU-145; HCT-116; EKVX; M14; IGROV-1; K562; SNB-19; NCI/ADR-RES; UO-31; OVCAR-8; SR.
Common to all, as to test: DTP human tumour cell line panel, 48 h

As usually defined, the GI50 is the concentration giving 50% growth inhibition. With `Oc1cccc2cc(Cl)cnc12`, the GI50 is 55.1 µM (inactive) in the assay with CAKI-1; 3.82 µM in the assay with HCT-15; 1.08 µM (active) with HL-60; 6.12 µM (inactive) with NCI-H23; 31.4 µM (inactive) with COLO 205; 58.7 µM (inactive) in the assay with SK-MEL-28. The GI50 in the assay on A549 was 7.08 µM (inactive); with HOP-92 it was 43.2 µM (inactive); in the assay with BT-549, 22.6 µM (inactive); in the assay on DU-145, 31.5 µM (inactive); with HCT-116 it was 4.46 µM (inactive); with EKVX, 4.88 µM (inactive). The GI50 in the assay with M14 is 9.06 µM (inactive); with IGROV-1, 7.16 µM (inactive); with K562, 3.87 µM (inactive); in the assay on SNB-19, > 32.4 µM (inactive); in the assay with NCI/ADR-RES it was 3.48 µM (inactive); in the assay with UO-31 it was 8.09 µM (inactive). Besides, the GI50 in the assay with OVCAR-8 was 3.7 µM (inactive).
Take `O=C1CC(=O)NC(NN2C(=O)CSC2C(=O)c2ccco2)=N1` (stereo not drawn): the GI50 in the assay with CAKI-1 was > 100 µM (inactive); in the assay with HCT-15, greater than 100 µM; in the assay with NCI-H23 it was > 100 µM (inactive); with COLO 205 it was > 100 µM (inactive); in the assay with SK-MEL-28, > 100 µM (inactive); in the assay with A549, > 100 µM (inactive). In addition, the GI50 in the assay on HOP-92, in the assay on BT-549, in the assay with DU-145, in the assay with HCT-116, with M14 and in the assay on IGROV-1 was > 100 µM (inactive) throughout. Besides, the GI50 with K562, in the assay on SR, in the assay on NCI/ADR-RES, in the assay on UO-31 and in the assay on OVCAR-8 was > 100 µM (inactive) each time.
With `c1ccc2c(c1)Oc1cccc3cccc-2c13`, the GI50 in the assay with CAKI-1 was > 100 µM (inactive); in the assay on HCT-15, 98.4 µM; with HL-60 it was > 100 µM (inactive); with NCI-H23 it was > 100 µM (inactive); in the assay on COLO 205, > 100 µM (inactive); in the assay with SK-MEL-28, > 100 µM (inactive). For the same compound, the GI50 with A549, in the assay with HOP-92, in the assay on BT-549, in the assay with DU-145, with HCT-116 and in the assay with EKVX was > 100 µM (inactive) in each case. Moreover, the GI50 in the assay on M14, in the assay with IGROV-1, in the assay on K562, in the assay with SNB-19, in the assay on NCI/ADR-RES and in the assay with UO-31 was > 100 µM (inactive) throughout. Further, the GI50 with OVCAR-8 is > 100 µM (inactive).
As to `Cc1ccc(S(=O)(=O)n2ccc(-c3ccc4ccn(S(=O)(=O)c5ccc(C)cc5)c4c3)c2)cc1`, the GI50 with CAKI-1 is > 100 µM (inactive); in the assay on HCT-15, greater than 100 µM; in the assay with HL-60 it was > 100 µM (inactive); in the assay with NCI-H23, > 100 µM (inactive); in the assay on COLO 205, > 100 µM (inactive); with A549, > 100 µM (inactive). Besides, the GI50 in the assay on BT-549, in the assay with DU-145, in the assay with HCT-116, in the assay with EKVX, in the assay with M14 and in the assay with IGROV-1 was > 100 µM (inactive) in each case. Moreover, the GI50 in the assay on K562 is > 100 µM (inactive); with SR, > 100 µM (inactive); in the assay on SNB-19, 41 µM (inactive); with NCI/ADR-RES, > 100 µM (inactive); in the assay on UO-31 it was > 100 µM (inactive); in the assay with OVCAR-8, > 100 µM (inactive).
For `O=C1CCCCC/C1=C\c1cccc(F)c1`, the GI50 is 65.9 µM (inactive) in the assay with CAKI-1; 39.8 µM in the assay on HCT-15; 17.1 µM (inactive) with HL-60; > 100 µM (inactive) with COLO 205; > 100 µM (inactive) in the assay on SK-MEL-28; > 100 µM (inactive) in the assay with A549. Besides, the GI50 with BT-549 was 51.9 µM (inactive); in the assay on DU-145, > 100 µM (inactive); in the assay with HCT-116, 54.6 µM (inactive); in the assay with EKVX, 73.8 µM (inactive); in the assay with M14, 43.4 µM (inactive); in the assay with IGROV-1, 58.9 µM (inactive). Further, the GI50 is 49.5 µM (inactive) in the assay with K562; 13.5 µM (inactive) in the assay on SR; > 100 µM (inactive) in the assay with SNB-19; > 100 µM (inactive) in the assay with NCI/ADR-RES; 57.7 µM (inactive) in the assay on UO-31; > 100 µM (inactive) in the assay with OVCAR-8.
Consider `COc1ccc(OC)c2c(=O)cc(-c3ccccc3)[nH]c12`, for which the concentration for 50% growth inhibition (GI50) in the assay on HCT-15 was greater than 100 µM; in the assay with HL-60 it was > 100 µM (inactive); in the assay on NCI-H23, > 100 µM (inactive); with COLO 205, > 100 µM (inactive); with SK-MEL-28 it was > 100 µM (inactive); in the assay on A549, > 100 µM (inactive). The GI50 in the assay on BT-549, in the assay with DU-145, with HCT-116, in the assay with EKVX, in the assay on M14 and in the assay on IGROV-1 was > 100 µM (inactive) each time. Besides, the GI50 with K562, in the assay on SR, with SNB-19, with NCI/ADR-RES, in the assay with UO-31 and in the assay with OVCAR-8 was > 100 µM (inactive) throughout.
Take `O=CN1CCN(C(=O)c2ccc(Cl)cc2Cl)C1=S`: the GI50 is 41.1 µM (inactive) in the assay with CAKI-1; 78.7 µM with HCT-15; 20.4 µM (inactive) in the assay with HL-60; > 100 µM (inactive) in the assay with NCI-H23; > 100 µM (inactive) in the assay with COLO 205; > 100 µM (inactive) with SK-MEL-28. Further, the GI50 in the assay on A549 is 67.3 µM (inactive); in the assay with HOP-92, 34.2 µM (inactive); in the assay on BT-549, > 100 µM (inactive); with DU-145 it was 84.5 µM (inactive); with HCT-116, > 100 µM (inactive); in the assay on EKVX, > 100 µM (inactive). The GI50 in the assay with M14 was > 100 µM (inactive); in the assay on IGROV-1 it was > 100 µM (inactive); in the assay with K562 it was 85.5 µM (inactive); in the assay on SNB-19, > 100 µM (inactive); in the assay with NCI/ADR-RES, > 100 µM (inactive); with OVCAR-8 it was > 100 µM (inactive).
In the case of `CCOC(=O)CCC(NC(=O)OCc1ccccc1)C(=O)NC(CCC(=O)OCC)C(=O)NC(Cc1ccc([N+](=O)[O-])cc1)C(=O)NC(CCC(=O)OCC)C(=O)NC(CCC(=O)OCC)C(=O)OCC` (stereo not drawn) (Cbz-E(OEt)E(OEt)[Phe(4-NO2)]E(OEt)E(OEt)-OEt; configuration not given here), the GI50 is > 100 µM (inactive) in the assay on CAKI-1; greater than 100 µM in the assay with HCT-15; > 100 µM (inactive) with NCI-H23; > 100 µM (inactive) in the assay with COLO 205; > 100 µM (inactive) with SK-MEL-28; > 100 µM (inactive) with A549. Also, the GI50 in the assay with BT-549, with DU-145, in the assay with HCT-116, with EKVX, with IGROV-1 and in the assay with SR was > 100 µM (inactive) throughout. For the same compound, the GI50 in the assay on SNB-19, in the assay with NCI/ADR-RES, with UO-31 and in the assay on OVCAR-8 was > 100 µM (inactive) throughout.
On to `NC(=O)Cc1nc2c(O)ncnc2n1C1OC(CO)C(O)C1O` (stereo not drawn), for which the GI50 was > 100 µM (inactive) with CAKI-1; greater than 100 µM with HCT-15; > 100 µM (inactive) in the assay with HL-60; > 100 µM (inactive) in the assay on NCI-H23; > 100 µM (inactive) in the assay with COLO 205; > 100 µM (inactive) with SK-MEL-28. Besides, the GI50 in the assay on A549, in the assay on HOP-92, in the assay with BT-549, in the assay on DU-145, in the assay with HCT-116 and in the assay on EKVX was > 100 µM (inactive) throughout. The GI50 with M14, with IGROV-1, in the assay on K562, in the assay with SNB-19, with NCI/ADR-RES and in the assay with UO-31 was > 100 µM (inactive) in each case. Besides, the GI50 in the assay with OVCAR-8 was > 100 µM (inactive).
Turning to `[N-]=[N+]=Nc1c(Cc2ccccc2)c(=O)oc2ccccc12`, the GI50 is 23.8 µM (inactive) in the assay on CAKI-1; 31 µM in the assay on HCT-15; 90.8 µM (inactive) with HL-60; 26.4 µM (inactive) in the assay with NCI-H23; 36.9 µM (inactive) in the assay with COLO 205; > 10 µM (inactive) in the assay on SK-MEL-28. For the same compound, the GI50 in the assay on A549 was 32.5 µM (inactive); with BT-549 it was 24.5 µM (inactive); with DU-145 it was 51.9 µM (inactive); in the assay on HCT-116, > 10 µM (inactive); in the assay with M14, 25.5 µM (inactive); in the assay with IGROV-1 it was 21.5 µM (inactive). The GI50 was 18.6 µM (inactive) with K562; 33.4 µM (inactive) in the assay with SR; 27.2 µM (inactive) with SNB-19; 27.6 µM (inactive) in the assay on NCI/ADR-RES; 36.1 µM (inactive) in the assay on UO-31.
`COC(=O)C1CC2C=CC1N(C(=O)OCc1ccccc1)C2` (stereo not drawn): the GI50 in the assay on CAKI-1 was > 100 µM (inactive); with HCT-15 it was greater than 100 µM; in the assay with HL-60 it was > 100 µM (inactive); in the assay with NCI-H23, > 100 µM (inactive); in the assay on COLO 205, > 100 µM (inactive); in the assay on SK-MEL-28 it was > 100 µM (inactive). Also, the GI50 in the assay with A549 was > 100 µM (inactive); in the assay with BT-549, > 100 µM (inactive); in the assay with DU-145, > 100 µM (inactive); with HCT-116, > 100 µM (inactive); in the assay with EKVX, 91.4 µM (inactive); in the assay on M14, > 100 µM (inactive). In addition, the GI50 was > 100 µM (inactive) in the assay on IGROV-1; > 100 µM (inactive) in the assay on K562; 59.3 µM (inactive) in the assay with SR; > 100 µM (inactive) in the assay with SNB-19; > 100 µM (inactive) in the assay on NCI/ADR-RES; > 100 µM (inactive) in the assay on UO-31. The GI50 in the assay on OVCAR-8 is > 100 µM (inactive).
